The record followed here is PubChem BioAssay (NCI).

Some test systems named below: SF-268 CNS; SK-MEL-5 melanoma; NCI/ADR-RES ovarian; HS 578T breast; RXF 393 renal; CCRF-CEM leukemia; OVCAR-3 ovarian; MCF7 breast; NCI-H23 lung; HOP-92 NSCLC.
Holding throughout (assay): growth of human tumour cells (NCI), 48 h

Molecules are shown by their SMILES.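 Values below derive from 48-hour exposures of cells grown in 96-well plates, with endpoints linearly interpolated between the two concentrations bracketing the appropriate inhibition level. GI50: concentration for 50% inhibition of growth. The concentration for full growth arrest is given as TGI.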

For the compound `COc1cc2cc(C(=O)N3CC(CCl)c4c3cc(O)c3ccccc43)[nH]c2c(OC)c1OC` (configuration not stated), the TGI with SF-268 CNS is 10.8 µM; in the assay on SK-MEL-5 melanoma, 0.00656 µM; in the assay with NCI/ADR-RES ovarian, over 50 µM; in the assay with HS 578T breast it was under 0.005 µM; in the assay with RXF 393 renal, under 0.005 µM; with CCRF-CEM leukemia, under 0.005 µM. The compound further showed a TGI in the assay with OVCAR-3 ovarian of 8.42 µM.
`COc1ccc(-c2cc(-c3ccccc3)nc3c2CC(=O)Nc2ccccc2-3)cc1OC`: the TGI in the assay on SF-268 CNS was over 100 µM; in the assay on SK-MEL-5 melanoma, over 100 µM; in the assay with NCI/ADR-RES ovarian, over 100 µM; in the assay with MCF7 breast it was over 43.1 µM; in the assay with RXF 393 renal it was over 46.3 µM; in the assay with NCI-H23 lung, over 100 µM. For the same compound, the TGI in the assay with CCRF-CEM leukemia, in the assay on HOP-92 NSCLC and with OVCAR-3 ovarian was over 100 µM throughout.
As for `CC(C)[C@](O)(C(=O)OCC1=CCN2CC[C@@H](O)[C@@H]12)[C@H](C)O`, the TGI with SF-268 CNS was over 375 µM; with SK-MEL-5 melanoma, over 80.8 µM; in the assay on NCI/ADR-RES ovarian it was over 375 µM; with MCF7 breast it was over 375 µM; with RXF 393 renal, over 375 µM; with NCI-H23 lung, over 375 µM. For the same compound, the TGI in the assay with CCRF-CEM leukemia, in the assay on HOP-92 NSCLC and in the assay with OVCAR-3 ovarian was over 375 µM in each case.
As to `CCCCS(=O)CC(CO)NC(=O)/C=C/c1c(C)[nH]c(=O)[nH]c1=O` (configuration not stated), the TGI is 20.8 µM with SF-268 CNS; 21.5 µM with SK-MEL-5 melanoma; 93.2 µM with NCI/ADR-RES ovarian; 51 µM in the assay on MCF7 breast; 51.3 µM in the assay with RXF 393 renal; 44.6 µM in the assay on NCI-H23 lung. The TGI with CCRF-CEM leukemia came out at 51 µM; in the assay on HOP-92 NSCLC, 101 µM; in the assay with OVCAR-3 ovarian, 15 µM.
Regarding `O=C1C=C2CC[C@H]3[C@@H]4CC[C@H](Oc5c6ccccc6nc6ccccc56)[C@H]4CC[C@@H]3[C@H]2CC1`, the TGI in the assay with SF-268 CNS is over 100 µM; in the assay on SK-MEL-5 melanoma, over 100 µM; with NCI/ADR-RES ovarian, over 100 µM; with HS 578T breast, over 100 µM; with RXF 393 renal, 91.5 µM; in the assay on NCI-H23 lung, over 100 µM. Further, the TGI is 60.1 µM in the assay on CCRF-CEM leukemia, 80.3 µM in the assay with HOP-92 NSCLC and over 100 µM in the assay on OVCAR-3 ovarian.
With `O=C1CCCN1CCCN=c1cc2n(-c3ccc(Cl)cc3)c3ccccc3nc-2cc1Nc1ccc(Cl)cc1`, the TGI with SF-268 CNS is over 100 µM; in the assay on SK-MEL-5 melanoma, 19 µM; in the assay on NCI/ADR-RES ovarian it was 42.1 µM; in the assay on MCF7 breast it was 25.8 µM; in the assay with RXF 393 renal it was 11.3 µM; in the assay with NCI-H23 lung, 25.1 µM. Besides, the TGI worked out at 50.3 µM in the assay with CCRF-CEM leukemia, 40.6 µM in the assay on HOP-92 NSCLC and 6.18 µM in the assay on OVCAR-3 ovarian.
In the case of `O=[p+]1c2ccccc2[nH]c2ccccc21`, the TGI in the assay on SF-268 CNS, in the assay with SK-MEL-5 melanoma, with NCI/ADR-RES ovarian, in the assay with MCF7 breast, with RXF 393 renal and in the assay with NCI-H23 lung was over 100 µM in each case. Also, the TGI in the assay on CCRF-CEM leukemia, in the assay with HOP-92 NSCLC and in the assay on OVCAR-3 ovarian was over 100 µM in each case.
With `O=S(=O)(O)c1ccccc1N=Nc1ccc(N=Nc2c(O)ccc3ccccc23)c(S(=O)(=O)O)c1`, the TGI in the assay on SF-268 CNS, in the assay with SK-MEL-5 melanoma, with NCI/ADR-RES ovarian, with HS 578T breast, with RXF 393 renal and in the assay with NCI-H23 lung was over 100 µM in each case. Further, the TGI in the assay on CCRF-CEM leukemia, in the assay on HOP-92 NSCLC and in the assay with OVCAR-3 ovarian was over 100 µM throughout.
For `Cc1cc(=O)c2ccccc2n1CCCCCCCCCCn1c(C)cc(=O)c2ccccc21`, the TGI in the assay on SF-268 CNS is 89.4 µM; with SK-MEL-5 melanoma, 6.27 µM; in the assay on NCI/ADR-RES ovarian, over 100 µM; in the assay on HS 578T breast it was 47.7 µM; with RXF 393 renal, 72.3 µM; in the assay with NCI-H23 lung, 30.9 µM. The TGI was 26.7 µM in the assay with CCRF-CEM leukemia, 38.5 µM in the assay with HOP-92 NSCLC and over 100 µM in the assay with OVCAR-3 ovarian.
On to `COC(=O)C1C(O)C(C)C(O)OC1C(C)C(O)C(C)/C=C\C=C(/C)C(=O)Nc1c(C)c(OC(C)=O)c2c(c1O)C(=O)C(C)=C1OCOC(/C(C)=C/C(C)=O)=C12` (configuration not stated), for which the TGI in the assay on SF-268 CNS was 33.1 µM; in the assay on SK-MEL-5 melanoma, 23.5 µM; with NCI/ADR-RES ovarian, 30.5 µM; in the assay on MCF7 breast, 26.8 µM; in the assay on RXF 393 renal, 24.8 µM; in the assay with NCI-H23 lung, 27.8 µM. Besides, the TGI in the assay with CCRF-CEM leukemia stood at 34.4 µM; with HOP-92 NSCLC, 22.3 µM; in the assay on OVCAR-3 ovarian, 20.5 µM.
Turning to `O=C(c1ccccc1)c1nn(-c2ccccc2)c2nc3nc(-c4ccccc4)cc(=O)n3nc12`, the GI50 with SK-MEL-5 melanoma was 13.6 µM; in the assay with NCI/ADR-RES ovarian, 26.2 µM; in the assay with HS 578T breast, 44.6 µM; with RXF 393 renal, 26 µM; in the assay on NCI-H23 lung it was 33.1 µM; with HOP-92 NSCLC it was 24.6 µM. Besides, in the assay on OVCAR-3 ovarian, the GI50 was 19.9 µM. Also, the TGI was 27.1 µM with SK-MEL-5 melanoma; 74.5 µM in the assay on NCI/ADR-RES ovarian; over 100 µM in the assay with HS 578T breast; over 100 µM in the assay with RXF 393 renal; over 100 µM with NCI-H23 lung; 78.3 µM with HOP-92 NSCLC. Also, the TGI with OVCAR-3 ovarian is 49.5 µM.
